# Test system: retinal pigmented epithelium (RPE) wild-type (WT) cells
# Experiment: Effect of calcium and red-light irradiation on NO levels (DAF-FM DA integrated fluorescence)
# Format: cell-based
# Procedure: In this experiment, the influence of Ca^2+ on nitric oxide (NO) levels was determined by measuring the integrated fluorescence of the reaction product of NO with diaminofluorescein-FM diacetate (DAF-FM DA, C25H18F2N2O7).
# Procedurally, the experiment was carried out using a 96 well plate, with either ionic calcium (Ca^2+) or encapsulated calcium (CaCD) added to each of the wells. The concentration of calcium in the wells as CaCl2 was 1.67 mM, and the concentration as CaCD was 2.79 mM stock (or 5 μM final concentration), in a total volume of 300 μL in each well. The number of RPE-WT cells was approximately 175,000 per well. Two reference samples for CaCl2 and CaCD were used to compare relative changes upon exposure to red-light in the presence of Ca^2+. The RPE cells were incubated with DAF-FM DA for 30 minutes at 37 degrees C. and the fluorescence was immediately measured (as time-point 0 minutes) to obtain a ‘background’ baseline.
smiles,measurement,setting,value
"[Ca+2].[Cl-].[Cl-] [Ca, CaCl2]","Intensity (integrated fluorescence of DAF-FM DA, NO level)","WT in PBS + Ca (no red light), Time 9.09 (minutes)",85.40
same,"Intensity (integrated fluorescence of DAF-FM DA, NO level)","WT in PBS + Ca (no red light), Time 28.63 (minutes)",92.76
same,"Intensity (integrated fluorescence of DAF-FM DA, NO level)","WT in PBS + Ca (no red light), Time 75.14 (minutes)",100.20
same,"Intensity (integrated fluorescence of DAF-FM DA, NO level)","WT in PBS + Ca (no red light), Time 307.24 (minutes)",191.01
same,"Intensity (integrated fluorescence of DAF-FM DA, NO level)","WT in PBS + Ca (no red light), Time 319.44 (minutes)",198.35
same,"Intensity (integrated fluorescence of DAF-FM DA, NO level)","WT in PBS + Ca (no red light), Time 431.58 (minutes)",271.80
same,"Intensity (integrated fluorescence of DAF-FM DA, NO level)","WT in PBS + Ca (no red light), Time 460.95 (minutes)",276.75
same,"Intensity (integrated fluorescence of DAF-FM DA, NO level)","WT in PBS + Ca (no red light), Time 770.49 (minutes)",489.70
same,"Intensity (integrated fluorescence of DAF-FM DA, NO level)","WT in PBS + Ca (no red light), Time 799.74 (minutes)",509.28
same,"Intensity (integrated fluorescence of DAF-FM DA, NO level)","WT in PBS + Ca + RL15, Time 9.09 (minutes)",85.40
same,"Intensity (integrated fluorescence of DAF-FM DA, NO level)","WT in PBS + Ca + RL15, Time 28.61 (minutes)",95.20
same,"Intensity (integrated fluorescence of DAF-FM DA, NO level)","WT in PBS + Ca + RL15, Time 70.2 (minutes)",105.06
same,"Intensity (integrated fluorescence of DAF-FM DA, NO level)","WT in PBS + Ca + RL15, Time 307.22 (minutes)",193.44
same,"Intensity (integrated fluorescence of DAF-FM DA, NO level)","WT in PBS + Ca + RL15, Time 316.95 (minutes)",203.22
same,"Intensity (integrated fluorescence of DAF-FM DA, NO level)","WT in PBS + Ca + RL15, Time 428.93 (minutes)",296.18
same,"Intensity (integrated fluorescence of DAF-FM DA, NO level)","WT in PBS + Ca + RL15, Time 460.74 (minutes)",303.57
same,"Intensity (integrated fluorescence of DAF-FM DA, NO level)","WT in PBS + Ca + RL15, Time 765.45 (minutes)",506.76
same,"Intensity (integrated fluorescence of DAF-FM DA, NO level)","WT in PBS + Ca + RL15, Time 799.54 (minutes)",533.67
same,"Intensity (integrated fluorescence of DAF-FM DA, NO level)","WT in PBS + Ca + RL30, Time 11.6 (minutes)",68.33
same,"Intensity (integrated fluorescence of DAF-FM DA, NO level)","WT in PBS + Ca + RL30, Time 33.6 (minutes)",75.70
same,"Intensity (integrated fluorescence of DAF-FM DA, NO level)","WT in PBS + Ca + RL30, Time 72.9 (minutes)",73.36
same,"Intensity (integrated fluorescence of DAF-FM DA, NO level)","WT in PBS + Ca + RL30, Time 308 (minutes)",83.69
same,"Intensity (integrated fluorescence of DAF-FM DA, NO level)","WT in PBS + Ca + RL30, Time 320.3 (minutes)",86.16
same,"Intensity (integrated fluorescence of DAF-FM DA, NO level)","WT in PBS + Ca + RL30, Time 427 (minutes)",237.64
same,"Intensity (integrated fluorescence of DAF-FM DA, NO level)","WT in PBS + Ca + RL30, Time 466 (minutes)",240.17
same,"Intensity (integrated fluorescence of DAF-FM DA, NO level)","WT in PBS + Ca + RL30, Time 770.9 (minutes)",462.87
same,"Intensity (integrated fluorescence of DAF-FM DA, NO level)","WT in PBS + Ca + RL30, Time 799.9 (minutes)",494.65
same,"Intensity (integrated fluorescence of DAF-FM DA, NO level)","WT in PBS + Ca + RL60, Time 11.52 (minutes)",87.84
same,"Intensity (integrated fluorescence of DAF-FM DA, NO level)","WT in PBS + Ca + RL60, Time 33.54 (minutes)",92.78
same,"Intensity (integrated fluorescence of DAF-FM DA, NO level)","WT in PBS + Ca + RL60, Time 72.65 (minutes)",105.07
same,"Intensity (integrated fluorescence of DAF-FM DA, NO level)","WT in PBS + Ca + RL60, Time 307.26 (minutes)",188.57
same,"Intensity (integrated fluorescence of DAF-FM DA, NO level)","WT in PBS + Ca + RL60, Time 319.42 (minutes)",200.79
same,"Intensity (integrated fluorescence of DAF-FM DA, NO level)","WT in PBS + Ca + RL60, Time 429.53 (minutes)",223.01
same,"Intensity (integrated fluorescence of DAF-FM DA, NO level)","WT in PBS + Ca + RL60, Time 463.82 (minutes)",225.53
same,"Intensity (integrated fluorescence of DAF-FM DA, NO level)","WT in PBS + Ca + RL60, Time 768.4 (minutes)",445.79
same,"Intensity (integrated fluorescence of DAF-FM DA, NO level)","WT in PBS + Ca + RL60, Time 799.9 (minutes)",480.01
same,DAF-FM DA NO profile,"ionic calcium wells, over the entire 800 minutes",continued to increase

# — patent US11103528B1, “Slow release calcium composition” (Government of the United States, as represented by the …, priority 2019, dated 2021)
